Consider three molecules from US9353100B2, “Macrocyclic serine protease inhibitors, pharmaceutical compositions thereof, and their use for treating HCV infections” (Idenix Pharmaceuticals LLC, priority 2011, dated 2016).

Where two headings read alike, the source gives them in different places.

One data set addresses T1, HCV NS3-NS4A protease 1a (Hepatitis C virus genotype 1a, UniProt P27958).
T1 construct: HCV NS3-NS4A protease, which was produced according to the method of Taremi et al; made in house
The experiment in a line: HCV protease assay (FRET peptide), genotype 1a. Type of data set: biochemical. The note with it: genotype 1a protease; 60 min at 30° C.; read-out: IC50 Against HS3/4A 1a. On the procedure: (§1) General procedure: Measurement of the inhibitory effect of compounds on HCV protease activity was performed using the HiLyte Fluor™ TR/QXL™ 610 FRET peptide from AnaSpec, Inc. (San Jose, Calif.) under conditions developed in-house using 2-3 nM HCV NS3-NS4A protease, which was produced according to the method of Taremi et al. (Protein Science, 1998, 7, 2143-2149). The compounds were tested at a variety of concentrations in assay buffer containing a final DMSO concentration of 5%. Reactions were allowed to proceed for 60 min at 30° C. and fluorescence measurements were recorded with a PerkinElmer Victor^3 V 1420 Multilabel Counter. The IC50 values were determined from the percent inhibition versus concentration data using a sigmoidal non-linear regression analysis based on four parameters with XLfit 4.1 software.

In the next data set the target is T2, HCV NS3-NS4A protease 1b (Hepatitis C virus genotype 1b, UniProt Q9WMX2).
T2 construct: HCV NS3-NS4A protease, which was produced according to the method of Taremi et al; made in house
The experiment in a line: HCV protease assay (FRET peptide), genotype 1b. Type of data set: biochemical. On the procedure: as §1

For a further data set, the target named is T3, HCV NS3-NS4A protease 2a (Hepatitis C virus genotype 2a, UniProt Q99IB8).
T3 construct: HCV NS3-NS4A protease, which was produced according to the method of Taremi et al; made in house
The experiment in a line: HCV protease assay (FRET peptide), genotype 2a. In kind it is biochemical. To be noted: genotype 2a protease; 60 min at 30° C.; read-out: IC50 Against HS3/4A 2a. As to the method: as §1

A further data set has as its target T4, HCV NS3-NS4A protease 3a (Hepatitis C virus genotype 3a, UniProt Q81258).
T4 construct: HCV NS3-NS4A protease, which was produced according to the method of Taremi et al; made in house
The experiment in a line: HCV protease assay (FRET peptide), genotype 3a. In kind it is biochemical. On the procedure: as §1

In a further data set the target is T5, HCV NS3-NS4A protease 4a (Hepatitis C virus genotype 4a, UniProt O39929).
T5 construct: HCV NS3-NS4A protease, which was produced according to the method of Taremi et al; made in house
The experiment in a line: HCV protease assay (FRET peptide), genotype 4a. The note with it: genotype 4a protease; 60 min at 30° C.; read-out: IC50 Against HS3/4A 4a. Type of data set: biochemical. On the procedure: as §1

In the next data set the target is T6, HCV NS3-NS4A protease 5a (Hepatitis C virus genotype 5a, UniProt O39928).
T6 construct: HCV NS3-NS4A protease, which was produced according to the method of Taremi et al; made in house
The experiment in a line: HCV protease assay (FRET peptide), genotype 5a. In kind it is biochemical. The note with it: genotype 5a protease; 60 min at 30° C.; read-out: IC50 Against HS3/4A 5a. As to the method:
as §1

The next data set concerns the target T7, HCV NS3-NS4A protease 6a (Hepatitis C virus genotype 6a, UniProt O39927).
T7 construct: HCV NS3-NS4A protease, which was produced according to the method of Taremi et al; made in house
The experiment in a line: HCV protease assay (FRET peptide), genotype 6a. In kind it is biochemical. To be noted: genotype 6a protease; 60 min at 30° C.; read-out: IC50 Against HS3/4A 6a. On the procedure:
as §1

Data set [1] relates to HCV genotype 1a H77 strain subgenomic luciferase replicon (H1a-luc) in Huh-7 cells. The experiment in a line: HCV luciferase replicon assay, genotype 1a (H1a-luc). The note with it: for FS (1a/1b): EC50 against genotype 1a HCV divided by EC50 against genotype 1b, replicon luciferase assay; for EC50: genotype 1a H77 replicon, Huh-7 (H1a-luc), 72 hours, read-out: EC50 Against Relpicon 1a. In kind it is cell-based. On the procedure: (§2) General procedure: The HCV luciferase replicon assay measures the ability of a test compound to inhibit HCV replication in cell culture after 3 days of treatment in a human hepatoma cell line (Huh-7) bearing a HCV replicon containing a luciferase-neomycin phosphotransferase fusion gene. The inhibition of HCV replication was measured by quantification of luciferase protein expression. Briefly, Huh-7 cells containing either the HCV genotype 1a H77 strain or genotype 1b Con1 strain subgenomic luciferase replicon (H1a-luc or Zluc, respectively) were grown in DMEM containing glucose, L-glutamine and sodium pyruvate, 10% fetal bovine serum (FBS), 100 IU/mL penicillin, 100 μg/mL streptomycin, 2 mM GlutaMAX, non-essential amino acids and 0.25 (H1a-luc) or 0.5 (Zluc) mg/mL G418. GlutaMAX was obtained from Invitrogen, Corp.; all other media reagents were obtained from Mediatech, Inc. For dose-response testing, the cells were seeded in 96-well plates at 1×10^4 (H1a-luc) or 7.5×10^3 (Zluc) cells/well in a volume of 50 μL and incubated at 37° C./5% CO2. Three hours after plating, 50 μL of ten 5-fold serial dilutions of compound were added, and cell cultures were incubated at 37° C./5% CO2 for 72 hours. In all cases, Huh-7 cells lacking the HCV replicon served as negative control. To assess luciferase expression, the media/compound was removed from the plates and ONE-glo Luciferase assay reagent (Promega) was added to each well. The assay plates were shaken for 3 minutes at room temperature and luciferase activity for each well was measured with a 1 sec read time on the Victor^3V multilabel counter using a 700 nm cut-off filter (Perkin Elmer). EC50 values were calculated from dose response curves from the resulting best-fit equations determined by Microsoft Excel and XLfit 4.1 software.
In general terms: In antiviral work, replicon cells carry a viral genome segment that copies itself.

In data set [2] the test system is HCV genotype 1b Con1 strain subgenomic luciferase replicon (Zluc) in Huh-7 cells. The experiment in a line: HCV luciferase replicon assay, genotype 1b (Zluc). Type of data set: cell-based. To be noted: genotype 1b Con1 replicon, Huh-7 (Zluc), 72 hours, read-out: EC50 Against Relpicon 1b. On the procedure: as §2
The nature of data set [3]: Cytotoxicity evaluation, Cell Titer 96 AQueous One Solution. Type of data set: cell-based, human. To be noted: human; Zluc cells, cellular viability. As to the method:
(§3) For cytotoxicity evaluation, Zluc cells were treated with compounds as described above and cellular viability was monitored using the Cell Titer 96 AQueous One Solution Cell Proliferation Assay (Promega). Plates were then read at 490 nm in a Victor^3V 1420 multilabel counter (Perkin Elmer) and CC50 concentrations were determined using Microsoft Excel and XLfit 4.1 software.

In data set [4] the test system is genotype 1b HCV replicon in Zluc cells. The experiment in a line: Genotype 1b HCV replicon luciferase assay with 10% FCS or 45% human serum. In kind it is cell-based. To be noted: EC50 in presence of 45% HS divided by EC50 in presence of 10% FCS. As to the method:
as §2
In Table 1, the values of FS with 45% HS were determined using the genotype 1b HCV replicon luciferase screening assay using Zluc cells, except that activity in the presence of 10% fetal calf serum (FCS) or 45% human serum (HS) was determined in parallel. The fold shift (FS) with 45% HS is the EC50 value in the presence of 45% HS divided by the EC50 value in the presence of 10% FCS. FS (1a/1b) is the EC50 value against genotype 1a HCV divided by the EC50 value against the genotype 1b in the replicon luciferase screening assay.

In the next data set the test system is Zluc cells. The experiment in a line: Cytotoxicity evaluation, Cell Titer 96 AQueous One Solution. The note with it: cellular viability. In kind it is cell-based, human. As to the method:
as §3

T2 sequence (Q9WMX2 1658-1711): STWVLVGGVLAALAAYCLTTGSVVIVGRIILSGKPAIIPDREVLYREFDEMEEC
T2 sequence (Q9WMX2 1027-1208): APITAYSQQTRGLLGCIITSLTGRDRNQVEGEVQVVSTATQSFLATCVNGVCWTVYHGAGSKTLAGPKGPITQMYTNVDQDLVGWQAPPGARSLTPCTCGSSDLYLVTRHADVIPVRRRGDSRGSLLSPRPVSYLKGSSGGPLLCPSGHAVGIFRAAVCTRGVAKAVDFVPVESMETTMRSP
T4 sequence (Q81258 1664-1717): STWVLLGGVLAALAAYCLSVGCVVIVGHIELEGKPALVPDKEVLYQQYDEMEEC
T4 sequence (Q81258 1033-1214): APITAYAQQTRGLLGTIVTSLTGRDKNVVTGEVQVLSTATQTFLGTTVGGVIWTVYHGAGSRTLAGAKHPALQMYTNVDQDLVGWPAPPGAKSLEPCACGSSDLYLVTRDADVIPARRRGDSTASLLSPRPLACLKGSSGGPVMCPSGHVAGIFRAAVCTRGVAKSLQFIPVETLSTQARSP
T7 sequence (O39927 1031-1212): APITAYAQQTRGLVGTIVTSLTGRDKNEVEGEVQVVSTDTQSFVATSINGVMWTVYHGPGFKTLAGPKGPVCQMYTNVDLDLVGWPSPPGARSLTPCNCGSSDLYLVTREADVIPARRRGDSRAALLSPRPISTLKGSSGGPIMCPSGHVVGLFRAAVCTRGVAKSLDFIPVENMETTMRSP
T7 sequence (O39927 1662-1715): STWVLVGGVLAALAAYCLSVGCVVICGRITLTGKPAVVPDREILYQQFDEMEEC
T5 sequence (O39929 1658-1711): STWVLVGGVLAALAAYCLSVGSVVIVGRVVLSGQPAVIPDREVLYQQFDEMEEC
T5 sequence (O39929 1027-1208): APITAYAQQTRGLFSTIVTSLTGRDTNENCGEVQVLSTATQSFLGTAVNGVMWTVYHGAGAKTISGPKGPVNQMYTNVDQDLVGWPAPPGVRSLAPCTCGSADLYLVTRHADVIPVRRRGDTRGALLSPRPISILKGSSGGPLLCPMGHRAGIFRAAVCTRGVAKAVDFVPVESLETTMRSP
T1 sequence (P27958 1027-1208): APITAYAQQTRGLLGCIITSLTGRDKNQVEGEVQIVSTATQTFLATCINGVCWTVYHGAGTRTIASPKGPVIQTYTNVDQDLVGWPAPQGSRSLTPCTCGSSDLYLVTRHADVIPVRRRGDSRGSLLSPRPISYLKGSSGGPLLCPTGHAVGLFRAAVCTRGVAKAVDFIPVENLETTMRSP
T1 sequence (P27958 1658-1711): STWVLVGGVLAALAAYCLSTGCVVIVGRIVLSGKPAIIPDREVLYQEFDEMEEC
T3 sequence (Q99IB8 1662-1715): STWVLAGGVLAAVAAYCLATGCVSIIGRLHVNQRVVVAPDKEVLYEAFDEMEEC
T3 sequence (Q99IB8 1031-1212): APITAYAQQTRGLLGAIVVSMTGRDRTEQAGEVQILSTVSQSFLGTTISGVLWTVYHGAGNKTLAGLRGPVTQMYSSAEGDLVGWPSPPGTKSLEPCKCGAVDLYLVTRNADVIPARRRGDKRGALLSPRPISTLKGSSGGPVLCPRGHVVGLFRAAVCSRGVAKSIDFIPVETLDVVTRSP
T6 sequence (O39928 1659-1712): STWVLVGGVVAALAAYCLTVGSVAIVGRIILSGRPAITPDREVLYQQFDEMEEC
T6 sequence (O39928 1028-1209): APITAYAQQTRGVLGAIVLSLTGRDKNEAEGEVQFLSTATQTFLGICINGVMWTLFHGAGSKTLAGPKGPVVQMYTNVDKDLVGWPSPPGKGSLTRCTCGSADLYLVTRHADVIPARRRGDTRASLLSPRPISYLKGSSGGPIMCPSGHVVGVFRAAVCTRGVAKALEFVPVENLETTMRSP

`Cc1csc(-c2cc(O[C@H]3CC[C@H]4C(=O)N(C)CCCC/C=C\[C@@H]5C[C@@]5(C(=O)NS(=O)(=O)C5(C)CC5)NC(=O)[C@@H]4C3)nc(-c3nc(C(F)(F)F)cs3)n2)n1` [Compound C101, (1R,4R,6R,15R,18S)-1-methyl-cyclopropanesulfonic acid {13-methyl-18-[6-(4-methyl-thiazol-2-yl)-2-(4-trifluoromethyl-thiazol-2-yl)-pyrimidin-4-yloxy]-2,14-dioxo-3,13-diaza-tricyclo[13.4.0.0]nonadec-7-ene-4-carbonyl}-amide]: the IC50 on HCV NS3-NS4A protease 1a, at HCV NS3-NS4A protease 1b, at HCV NS3-NS4A protease 2a, against HCV NS3-NS4A protease 3a, at HCV NS3-NS4A protease 4a and at HCV NS3-NS4A protease 5a was less than 10 nM throughout. Further, the IC50 at HCV NS3-NS4A protease 6a is less than 10 nM. Further, in data set [1], the “FS (1a/1b)” value is listed as 7. Further, the half-maximal effective concentration (EC50) in data set [1] (Hepatitis C virus) and in data set [2] (Hepatitis C virus) was less than 10 nM each time. The molecule further came in with a 50% cytotoxic concentration (CC50) in data set [3] of more than 10000 nM. In data set [4], the “FS with 45% HS” value is 16.
As to `C#Cc1csc(-c2cc(O[C@H]3CC[C@H]4C(=O)N(C)CCCC/C=C\[C@@H]5C[C@@]5(C(=O)NS(=O)(=O)C5(C)CC5)NC(=O)[C@@H]4C3)c3ccc(OC)c(C)c3n2)n1` [Compound 17a, (1R,4R,6R,15R,18S)-1-methyl-cyclopropanesulfonic acid {18-[2-(4-ethynyl-thiazol-2-yl)-7-methoxy-8-methyl-quinolin-4-yloxy]-13-methyl-2,14-dioxo-3,13-diaza-tricyclo[13.4.0.0]nonadec-7-ene-4-carbonyl}-amide, reference compound], the IC50 is less than 10 nM on HCV NS3-NS4A protease 1a; less than 10 nM on HCV NS3-NS4A protease 1b; less than 10 nM on HCV NS3-NS4A protease 2a; 10 to 100 nM on HCV NS3-NS4A protease 3a; less than 10 nM on HCV NS3-NS4A protease 4a; less than 10 nM at HCV NS3-NS4A protease 5a. Besides, the IC50 on HCV NS3-NS4A protease 6a is less than 10 nM. Also, the “FS (1a/1b)” value in data set [1] worked out at 8. Besides, the EC50 in [1] (Hepatitis C virus) and in [2] (Hepatitis C virus) was less than 10 nM each time. Besides, the CC50 in data set [3] was more than 10000 nM. Further, the “FS with 45% HS” value in data set [4] came out at 29.
Turning to “(1R,4R,6R,15R,18S)-1-methyl-cyclopropanesulfonic acid [18-(2,5-diphenyl-thiazol-4-yloxy)-13-methyl-2,14-dioxo-3,13-diaza-tricyclo[13.4.0.0]nonadec-7-ene-4-carbonyl]-amide [Compound D103]”, the IC50 on HCV NS3-NS4A protease 1b (genotype 1b protease, 60 min at 30° C., read-out: IC50 Against HS3/4A 1b) lay within 10 to 100 nM. For the same molecule, in [1], the “FS (1a/1b)” value is listed as 113 and the 50% effective concentration (EC50) was 1000 to 10000 nM. In addition, in data set [2], the concentration for a half-maximal effect (EC50) was 10 to 100 nM. Besides, in the data set with Zluc cells, the half-maximal cytotoxic concentration (CC50) was more than 10000 nM.

As a reminder, the EC50 is the concentration at which the effect is half-maximal. One may read the CC50 as the concentration giving 50% cytotoxicity.
